{"source": "patent US8551963B2", "about": "“Imidazolothiazole compounds and methods of use thereof” (Ambit Biosciences Corporation, priority 2008, dated 2013)", "key": {"CYP2C8 [1]": {"molecular_target": "T1, CYP2C8 (Homo sapiens (Human), UniProt P10632)", "T1 sequence (P10632 whole entry, canonical isoform)": "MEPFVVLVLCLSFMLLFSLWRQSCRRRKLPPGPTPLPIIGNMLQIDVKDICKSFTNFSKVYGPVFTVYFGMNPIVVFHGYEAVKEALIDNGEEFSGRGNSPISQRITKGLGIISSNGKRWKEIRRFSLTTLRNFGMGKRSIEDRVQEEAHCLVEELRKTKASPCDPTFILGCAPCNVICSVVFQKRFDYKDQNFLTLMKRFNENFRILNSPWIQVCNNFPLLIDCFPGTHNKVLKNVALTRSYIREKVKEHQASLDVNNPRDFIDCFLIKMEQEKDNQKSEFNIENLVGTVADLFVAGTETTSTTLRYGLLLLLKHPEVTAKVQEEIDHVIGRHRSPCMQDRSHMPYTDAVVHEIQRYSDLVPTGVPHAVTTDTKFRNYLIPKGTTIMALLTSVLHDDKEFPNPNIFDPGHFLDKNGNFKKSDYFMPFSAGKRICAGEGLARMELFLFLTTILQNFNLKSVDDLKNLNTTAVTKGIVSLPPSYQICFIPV", "assay": "Time dependant inhibition in human liver microsomes, CYP2C8", "format": "in vitro ADME", "experimental": "(§1) For each CYP isoform tested, 10 μM Compound I-1 was pre-incubated with pooled male and female human liver microsomes with NADPH in a 37° C. shaking water bath in duplicate to afford a final pre-incubation assay concentration of 100 mM KPO4/pH 7.4, 10 mM MgCl2, 2 mg/mL of human liver microsome (CellzDirect lot HLM HMMC-PL020) and 1 mM NADPH (Calbiochem). At each pre-incubation time point (0, 5, 10, 20, and 30 minutes) 20 μL was removed and placed in a second 96 well plate on ice. After all pre-incubation time points were collected 180 uL of additional human microsome liver preparation containing the appropriate CYP specific substrate at its Km concentration listed in Table 11 plus NADPH, was added to each time point. The samples were incubated for an additional 10 minutes in a 37° C. shaking water bath and then quenched with 75:25 acetonitrile (ACN):water containing the appropriate internal standards listed in Table 11. After brief mixing, the plate was centrifuged and the supernatant removed for analysis by LC/MS/MS (API 4000 Qtrap) for the formation of 6-hydroxy-testosterone (CYP3A4), 4-hydroxy-mephenyloin (CYP2C19), or 6-hydroxy-taxol (CYP2C8). […] Consistent with Example 5, Compound I-1 did inhibit CYP2C8-mediated metabolite formation at 10 μM, but not in a time dependent manner."}, "CYP2C8 [2]": {"molecular_target": "T1, CYP2C8", "assay": "Inhibitory constant KI in human liver microsomes, CYP2C8", "format": "in vitro ADME", "conditions": "CYP2C8, global non-linear regression", "experimental": "A 2 mM stock of Compound I-1 was prepared in acetonitrile (ACN) and serially diluted 2-fold from 2000 μM to 15.63 μM in ACN. […] Individual human liver microsome preparations containing the substrate were then incubated with Compound I-1 (final concentration range 40 μM to 0.31 μM of Compound I-1) for a final incubation concentration of 0.5 mg/mL microsome, 75 mM KPO4, 6.5 mM MgCl2, 1 mM NADPH and 2% acetonitrile (ACN). The samples were incubated in a 37° C. shaking water bath for 20 minutes then quenched with ACN:water (75:25) containing internal standards propranolol at 0.3 ng/mL and cortisone at 0.3 ng/mL. After brief mixing, the plate was centrifuged and the supernate removed for analysis by LC/MS/MS (API 4000 Qtrap) for formation of 6-hydroxy-testosterone (CYP3A4), 4-hydroxy-mephenyloin (CYP2C19) or hydroxy-taxol (CYP2C8). The data was analyzed using global non-linear regression software (GraphPad Prism) and the overall fit of the data (R^2) was used to determine if Compound I-1 was a competitive, non-competitive, or uncompetitive inhibitor. In addition the data was plotted as a Lineweaver-Burke graph (1/V versus 1/S, where V is the […] and S is the substrate concentration) for each inhibitor concentration. Based on the location of convergence (competitive and non-competitive) or non convergence (uncompetitive) of the plots at each inhibitor concentration, the type of inhibition was determined.\nGlobal non-linear regression allows analysis of all the individual inhibitor curves simultaneously and determines the best fit value for shared parameters between the data sets, in this case KI (or KI′). The results of the global nonlinear analysis of Compound I-1 inhibition of the CYP450 isoforms 3A4, 2C19 and 2C8 are shown in Table 12."}, "P-Glycoprotein": {"molecular_target": "P-Glycoprotein (Homo sapiens (Human), UniProt P08183)", "sequence (P08183 whole entry)": "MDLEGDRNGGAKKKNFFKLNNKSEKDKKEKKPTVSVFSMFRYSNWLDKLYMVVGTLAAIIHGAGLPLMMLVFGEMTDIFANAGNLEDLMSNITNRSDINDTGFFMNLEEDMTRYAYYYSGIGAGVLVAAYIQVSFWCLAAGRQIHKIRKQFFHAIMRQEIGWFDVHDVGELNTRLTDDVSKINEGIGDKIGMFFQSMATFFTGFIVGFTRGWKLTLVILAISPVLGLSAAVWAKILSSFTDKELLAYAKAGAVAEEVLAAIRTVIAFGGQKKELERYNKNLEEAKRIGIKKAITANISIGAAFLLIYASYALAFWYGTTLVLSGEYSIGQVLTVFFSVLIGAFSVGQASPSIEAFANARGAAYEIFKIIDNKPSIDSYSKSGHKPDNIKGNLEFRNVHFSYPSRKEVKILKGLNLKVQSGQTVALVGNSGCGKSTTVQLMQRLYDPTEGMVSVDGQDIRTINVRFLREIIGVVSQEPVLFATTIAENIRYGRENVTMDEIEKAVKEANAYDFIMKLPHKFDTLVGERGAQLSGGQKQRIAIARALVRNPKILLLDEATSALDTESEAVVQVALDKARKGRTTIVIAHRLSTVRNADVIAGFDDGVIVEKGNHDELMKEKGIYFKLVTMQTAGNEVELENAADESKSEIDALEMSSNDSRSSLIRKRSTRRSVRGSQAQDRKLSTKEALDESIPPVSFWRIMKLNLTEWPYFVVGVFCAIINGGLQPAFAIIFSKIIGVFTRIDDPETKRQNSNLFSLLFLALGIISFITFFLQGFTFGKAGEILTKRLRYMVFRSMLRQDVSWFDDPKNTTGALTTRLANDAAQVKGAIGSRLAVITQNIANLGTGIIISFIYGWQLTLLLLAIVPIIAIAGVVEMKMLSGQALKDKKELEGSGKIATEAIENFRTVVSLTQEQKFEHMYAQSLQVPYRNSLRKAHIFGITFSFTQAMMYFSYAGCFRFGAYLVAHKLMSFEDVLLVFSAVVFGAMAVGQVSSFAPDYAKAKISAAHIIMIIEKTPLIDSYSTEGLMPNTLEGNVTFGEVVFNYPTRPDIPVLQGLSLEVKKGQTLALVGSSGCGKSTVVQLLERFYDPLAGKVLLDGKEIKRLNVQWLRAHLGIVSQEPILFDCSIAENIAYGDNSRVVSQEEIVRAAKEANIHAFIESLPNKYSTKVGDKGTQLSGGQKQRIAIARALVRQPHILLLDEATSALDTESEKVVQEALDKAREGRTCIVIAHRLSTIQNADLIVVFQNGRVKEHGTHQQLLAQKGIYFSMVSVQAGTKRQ", "assay": "Digoxin bidirectional MDR1-MDCK permeability, Compound I-1 as an inhibitor", "conditions": "Surf.", "quoted_text": "MDR1-MDCK cells were grown to confluence for 5-10 days on 1 μm filters in 24-well plate. Aliquots of DMSO solute stocks were diluted into Hank's balanced salt solution (HBSS) pH 7.4 containing 25 mM HEPES+−0.05% PS80 to give 0.5, 1.5 or 5.0 μM solute concentrations. Final concentrations of DMSO in the assayed samples ranged from 0.005% for the 0.5 μM concentration to 0.05% for the 5 μM concentration. […] The solute containing donor solutions were transferred to either the apical or basolateral chamber of the permeability diffusion apparatus. Receiver solutions consisted of Hank's balanced salt solution (HBSS) pH 7.4 containing 25 mM HEPES+0.05% PS80. The entire receiver solution was removed at 20 minute intervals and manually replaced with fresh buffer. The concentration of transported solute during each sampling interval was determined by HPLC/UV/MS. The standard curve was produced from serial dilutions of the dosing solution. D0 was a 50 μl aliquot of dosing solution from the donor well diluted with 450 μl of HBSS. The standard curve was produced from serial dilutions of the dosing solution (1:10, 1:25, 1:50, 1:100, 1:500 and 1:1000). Permeability coefficients were calculated for each sampling interval using the following equation:\n[formula] Where VD=volume of donor (0.4 ml for Ap_Bl flux and 1.0 ml for Bl_Ap flux), A=surface area of the filter on which the monolayer was grown (0.31 cm2), MD(0)=mass in the donor at the beginning of the ith sampling interval, MR (t)=mass in the receiver at time t, and _t is the experimental interval (20 minutes). The apparent permeability, Papp, is then calculated as the average:\nThe average and standard deviation from the intervals is reported. Mass balance in the system was ascertained by comparing the sum of total transported solute and remaining donor solute with the starting mass of solute and is expressed as a percentage of donor solute at time zero. […] At the termination of the experiment, the cell monolayers are stored in the cold until the data is analyzed. After analysis, if mass balance falls below 70% in a given experiment, those monolayers are retrieved and extracted with acetonitrile. After separation of cellular debris, the extract is analyzed for recoverable solute of interest. […] All determinations were performed in duplicate."}, "CYP2C19": {"molecular_target": "CYP2C19 (Homo sapiens (Human), UniProt P33261)", "sequence (P33261 whole entry)": "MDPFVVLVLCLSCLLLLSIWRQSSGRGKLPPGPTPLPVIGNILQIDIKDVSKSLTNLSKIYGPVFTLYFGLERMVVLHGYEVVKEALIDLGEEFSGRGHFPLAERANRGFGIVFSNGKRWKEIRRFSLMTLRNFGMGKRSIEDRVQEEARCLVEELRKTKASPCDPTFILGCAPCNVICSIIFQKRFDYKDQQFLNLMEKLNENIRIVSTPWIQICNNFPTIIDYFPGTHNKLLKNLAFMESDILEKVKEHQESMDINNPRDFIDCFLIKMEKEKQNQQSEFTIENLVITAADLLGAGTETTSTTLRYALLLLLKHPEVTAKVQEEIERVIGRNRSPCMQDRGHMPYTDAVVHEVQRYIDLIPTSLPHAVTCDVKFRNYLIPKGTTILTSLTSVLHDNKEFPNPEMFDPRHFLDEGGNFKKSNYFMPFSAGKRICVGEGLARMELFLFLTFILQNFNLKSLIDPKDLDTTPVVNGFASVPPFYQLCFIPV", "assay": "Time dependant inhibition in human liver microsomes, CYP2C19", "format": "in vitro ADME", "conditions": "CYP2C19, 10 μM, pre-incubation 0-30 minutes", "experimental": "as §1"}, "CYP2D4": {"molecular_target": "CYP2D4 (Homo sapiens, UniProt P10635)", "sequence (P10635 whole entry, looked up)": "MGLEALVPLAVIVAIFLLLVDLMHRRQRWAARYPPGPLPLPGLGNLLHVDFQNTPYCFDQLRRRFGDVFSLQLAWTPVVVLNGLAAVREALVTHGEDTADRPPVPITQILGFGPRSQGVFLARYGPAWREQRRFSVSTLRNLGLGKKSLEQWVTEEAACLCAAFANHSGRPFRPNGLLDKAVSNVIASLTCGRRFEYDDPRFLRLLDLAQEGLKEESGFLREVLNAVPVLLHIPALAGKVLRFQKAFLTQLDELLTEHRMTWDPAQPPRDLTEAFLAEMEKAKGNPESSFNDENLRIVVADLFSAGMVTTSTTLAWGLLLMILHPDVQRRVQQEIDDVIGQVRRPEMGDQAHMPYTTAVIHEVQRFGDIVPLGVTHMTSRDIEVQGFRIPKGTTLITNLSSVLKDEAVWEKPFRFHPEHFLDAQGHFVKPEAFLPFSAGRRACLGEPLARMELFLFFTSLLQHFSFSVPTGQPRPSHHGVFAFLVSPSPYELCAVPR", "assay": "Cyp enzyme inhibition assay in human liver microsomes, CYP2D4", "format": "in vitro ADME", "conditions": "both sexes, pooled human liver microsomes, pH 7.4, probe dextromethorphan, CYP2D4, substrate dextromethorphan", "experimental": "(§2) The ability of the compound I-1 to inhibit human metabolizing enzymes CYP3A4, CYP2C9, […], CYP2C19 and CYP1A2, was assessed using those enzymes found collectively in human liver microsomes. The test compound I-1 was prepared as a solution in DMSO or acetonitrile and plated in duplicate rows of a 96-well plate (Nunc) for a final assay concentration of 40 μM in 0.2% DMSO (or 2% acetonitrile) in the first column and serially diluted two-fold going down the row. A known selective inhibitor of a given CYP enzyme listed in Table 8 was selected as the appropriate positive control. For each CYP enzyme inhibition assay, an appropriate enzyme-substrate mixture was prepared to afford a final assay concentration of 75 mM KPO4/pH 7.4, 6.5 mM MgCl2, 0.25 mg/mL pooled male and female human liver microsome (CellzDirect lot HMMC-PL020) with the amounts of the appropriate substrate for each CYP enzyme assay given in Table 8. The enzyme-substrate mixture was added to columns 1 through 10 and column 11 served as a negative control with enzyme solution lacking substrate. A solution of NADPH (Calbiochem) was then added to all rows except for one where NADPH would be added after the incubation period, in order to detect NADPH-independent non-CYP-mediated metabolism. The plate was briefly vortexed and left to shake in a 37° C. water bath for 20 minutes. […]"}, "CYP3A4 [3]": {"molecular_target": "T2, CYP3A4 (Homo sapiens (Human), UniProt P08684)", "T2 sequence (P08684 whole entry)": "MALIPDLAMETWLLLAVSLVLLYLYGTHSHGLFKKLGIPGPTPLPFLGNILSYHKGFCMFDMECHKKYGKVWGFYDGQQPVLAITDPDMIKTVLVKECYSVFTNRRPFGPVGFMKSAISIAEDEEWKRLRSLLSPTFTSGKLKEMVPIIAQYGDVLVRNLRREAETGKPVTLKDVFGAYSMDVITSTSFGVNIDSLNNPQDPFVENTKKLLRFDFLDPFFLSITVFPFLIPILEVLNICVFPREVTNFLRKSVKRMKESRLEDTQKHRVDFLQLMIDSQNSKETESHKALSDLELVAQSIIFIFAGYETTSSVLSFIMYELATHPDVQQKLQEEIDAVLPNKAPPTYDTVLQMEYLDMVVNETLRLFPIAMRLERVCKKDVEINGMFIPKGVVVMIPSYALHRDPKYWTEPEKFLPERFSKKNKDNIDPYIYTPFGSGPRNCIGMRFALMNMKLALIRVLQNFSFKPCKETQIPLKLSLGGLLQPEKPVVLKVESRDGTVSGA", "assay": "Cyp enzyme inhibition assay in human liver microsomes, CYP3A4", "format": "in vitro ADME", "conditions": "CYP3A4, substrate testosterone", "experimental": "as §2"}, "CYP3A4 [4]": {"molecular_target": "T2, CYP3A4", "assay": "Time dependant inhibition in human liver microsomes, CYP3A4", "format": "in vitro ADME", "conditions": "CYP3A4, 10 μM, pre-incubation 0-30 minutes", "experimental": "as §1"}, "FLT3 (K663Q)": {"molecular_target": "FLT3 (K663Q) (Homo sapiens (Human), UniProt P36888, K663Q)", "assay": "biochemical", "format": "binding", "quoted_text": "Competition binding assays used herein were developed, validated and performed as described in Fabian et al., Nature Biotechnology 2005, 23, 329-336. Kinases were produced as fusions to T7 phage (See, Fabian et al. or WO04/015142) or alternatively, the kinases were expressed in HEK-293 cells and subsequently tagged with DNA for PCR detection (See, WO08/005,310). […] The liganded beads were blocked with excess biotin and washed with blocking buffer (SeaBlock (Pierce), 1% BSA, 0.05% Tween 20, 1 mM DTT) to remove unbound ligand and to reduce non-specific binding. […] Test compounds were prepared as 100× stocks in DMSO and rapidly diluted into the aqueous environment. DMSO was added to control assays lacking a test compound. […] The kinase concentration in the eluates was measured by quantitative PCR. Each kinase was tested individually against each compound. Kds were determined using eleven serial threefold dilutions."}, "[5]": {"conditions": "Table 17, Digoxin 1 μM + Compound I-1 5.0 μM"}, "[6]": {"conditions": "preliminary experiment, Digoxin 1 μM + Compound I-1 0.5 μM"}, "[7]": {"conditions": "preliminary experiment, Digoxin 1 μM + Compound I-1 1.5 μM"}, "[8]": {"conditions": "preliminary experiment, Digoxin 1 μM + Compound I-1 5.0 μM"}}, "note": "Read-outs that look alike come from different tables or passages of the source.", "data": [{"smiles": "CC(C)(CO)c1cc(NC(=O)Nc2ccc(-c3cn4c(n3)sc3cc(OCCN5CCOCC5)ccc34)cc2)no1", "note": "[Compound I-1, 1-[5-(2-hydroxy-1,1-dimethyl-ethyl)-isoxazol-3-yl]-3-{4-[7-(2-morpholin-4-yl-ethoxy)-benzo[d]imidazo[2,1-b]thiazol-2-yl]-phenyl}-urea]", "values": [{"measurement": "Inhibition of CYP2C8-mediated metabolite formation", "setting": "CYP2C8 [1]; 10 μM", "value": "did inhibit"}, {"measurement": "Time dependant inhibition", "setting": "CYP2C8 [1]; CYP2C8, 10 μM, pre-incubation 0-30 minutes", "value": "not a time dependant inhibitor"}, {"measurement": "Ki", "setting": "CYP2C8 [2]; read-out: Best Fit KI, Competitive", "value": 22.1, "unit": "µM"}, {"measurement": "Ki", "setting": "CYP2C8 [2]; read-out: Best Fit KI, Non-competitive", "value": 60.8, "unit": "µM"}, {"measurement": "Ki", "setting": "CYP2C8 [2]; read-out: Best Fit KI′, Uncompetitive", "value": 37.7, "unit": "µM"}, {"measurement": "Digoxin Mass Bal (AP→BL)", "setting": "P-Glycoprotein; [5]", "value": 104, "unit": "%"}, {"measurement": "Digoxin Mass Bal (BL→AP)", "setting": "P-Glycoprotein; [5]", "value": 98, "unit": "%"}, {"measurement": "Digoxin Mass Bal (AP→BL)", "setting": "P-Glycoprotein; [6]", "value": 98, "unit": "%"}, {"measurement": "Digoxin Mass Bal (BL→AP)", "setting": "P-Glycoprotein; [6]", "value": 91, "unit": "%"}, {"measurement": "Digoxin Mass Bal (AP→BL)", "setting": "P-Glycoprotein; [7]", "value": 98, "unit": "%"}, {"measurement": "Digoxin Mass Bal (BL→AP)", "setting": "P-Glycoprotein; [7]", "value": 94, "unit": "%"}, {"measurement": "Digoxin Mass Bal (AP→BL)", "setting": "P-Glycoprotein; [8]", "value": 93, "unit": "%"}, {"measurement": "Digoxin Mass Bal (BL→AP)", "setting": "P-Glycoprotein; [8]", "value": 99, "unit": "%"}, {"measurement": "Time dependant inhibition", "setting": "CYP2C19", "value": "not a time dependant inhibitor"}, {"measurement": "IC50 at 20 min", "setting": "CYP2D4", "value": "> 40", "unit": "µM"}, {"measurement": "IC50", "setting": "CYP3A4 [3]", "value": "> 40", "unit": "µM"}, {"measurement": "Time dependant inhibition", "setting": "CYP3A4 [4]", "value": "not a time dependant inhibitor"}, {"measurement": "Kd", "setting": "FLT3 (K663Q)", "value": 0.00069, "unit": "µM"}]}]}
